Measurements as given in US6423547B1, “Non-covalent bioconjugates useful for diagnosis and therapy” (Mallinckrodt Inc., priority 1998, dated 2002).
Like-named read-outs stand apart in the source and are kept apart here.

Key:
[1] = Stability of carboxyphloroglucinol-squaraine dye and bioconjugates in aqueous solution, fluorescence intensity at 613 nm; assay type: physicochemical; settings: 613 nanometers (λex=515), ambient temperature
[2] = Stability of benzothiazolim-squaraine dye and bioconjugates in aqueous solution, fluorescence intensity at 665 nm; assay type: physicochemical; settings: 665 nanometers, ambient temperature
[3] = Stability of cyanine blue dye and conjugates in aqueous solution, fluorescence intensity at 670 nm; assay type: physicochemical; settings: 670 nanometers, ambient temperature
[4] = in vivo; cited from earlier work
[5] = Blood clearance in rats monitored by fluorescence from ear capillaries; settings: rat, injected through lateral tail vein; excitation 780 nm, emission 830 nm
Description: A 500 μL portion of indocyanine green solution (0.8 mg/mL) was injected through the lateral tail vein of Sprague-Dawley or Fischer rats. Blood clearance of the dye bioconjugate was monitored by fluorescence signal emanating from the capillaries of the ear surface using a laser fluorescence apparatus (excitation, 780 nm; emission 830 nm).

[6] = 822 nanometers, ambient temperature, aqueous solution
Description: An aqueous solution of indocyanine green (ICG) and the carriers, inulin, poly-d,l-aspartic acid, polyguanylic acid, MBSA, and γ-cyclodextrin were prepared and the fluorescence intensity was monitored at ambient temperature at various time intervals.

[7] = cited from earlier work

SMILES: O=C(O)C1=C(O)/C(=C2/C(=O)C(c3c(O)cc(O)c(C(=O)O)c3O)=C2O)C(O)=CC1=O [Carboxyphloroglucinol Squaraine Dye]
- Percent Decrease in Fluorescence ([1]; 2 Hours): 13%
- Percent Decrease in Fluorescence ([1]; 4 Hours): 13%
- Percent Decrease in Fluorescence ([1]; 24 Hours): 50%

SMILES: O=C(O)CN1/C(=C/C2=C(O)C(=C/c3sc4ccccc4[n+]3CC(=O)O)/C2=O)Sc2ccccc21 [Benzothiazolim Dye/Water, Benzothiazolium Squaraine Dye]
- Percent Decrease in Fluorescence ([2]; 2 Hours): 92%
- Percent Decrease in Fluorescence ([2]; 4 Hours): 64%
- Percent Decrease in Fluorescence ([2]; 24 Hours): 46%

SMILES: O=C(O)CN1/C(=C/C=C/C=C/c2sc3ccccc3[n+]2CC(=O)O)Sc2ccccc21 [Cyanine Blue Dye/Water, Cyanine Blue Dye]
- Percent Decrease in Fluorescence ([3]; 2 Hours): 20%
- Percent Decrease in Fluorescence ([3]; 4 Hours): 42%
- Percent Decrease in Fluorescence ([3]; 24 Hours): 99%

SMILES: CC1(C)C(/C=C/C=C/C=C/C=C2/N(CCCCS(=O)(=O)O)c3ccc4ccccc4c3C2(C)C)=[N+](CCCCS(=O)(=O)O)c2ccc3ccccc3c21.[Na+].[Na+] [indocyanine green, Indocyanine Green Dye]
- plasma half-life [4]: very short
- uptake by the liver [4]: rapidly taken up by the liver
- time constant (τ) for blood clearance [5]: 138 s
- Percent Decrease in Fluorescence ([6]; 2 Hours): 0%
- Percent Decrease in Fluorescence ([6]; 4 Hours): 19%
- Percent Decrease in Fluorescence ([6]; 24 Hours): 48%
- degradation in aqueous media [7]: undergoes degradation in aqueous media with loss of fluorescence
